Molecular target: T1, CDK4/cyclin D3 (Homo sapiens, UniProt P11802)
T1 construct: made in house; host or cells: insect cells (baculovirus co-infection)
Assay: Inhibition of CDK4/Cyclin D retinoblastoma kinase activity;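 for % Inhib CDK4/D @ 1 μM: relative to DMSO control wells without compound minus no-enzyme background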
Assay type: biochemical
Conditions: for inhibition at 0.1 µM / % Inhib CDK4/D @ 0.1 μM: test compound at 0.1 μM; for inhibition at 0.1 µM: read-out: % Inhib CDK4/D @ 0.1 μM; for inhibition at 1 µM / % Inhib CDK4/D @ 1 μM: test compound at 1 μM (head line shifted: 'mM' printed beside 'Structure'); for inhibition at 1 µM: read-out: % Inhib CDK4/D @ 1 μM; for inhibition at 0.03 µM / % Inhib CDK4/D @ 0.03: test compound at 0.03 (unit cell empty, head line shifted; μM); for inhibition at 0.03 µM: read-out: % Inhib CDK4/D @ 0.03
In short: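 Apparent Ki derived by fitting activity at varied inhibitor concentrations to competitive (or competitive tight-binding) inhibition equations, background without enzyme subtracted. Radiometric filter-binding read-out of Rb(386-928) phosphorylation by 5 nM CDK4/cyclin D3(1-264); 25 μM ATP, pH 7.4, 2% DMSO, 30° C., 20 min, extended to 60 min for tight binders.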

T1 sequence (P11802 whole entry): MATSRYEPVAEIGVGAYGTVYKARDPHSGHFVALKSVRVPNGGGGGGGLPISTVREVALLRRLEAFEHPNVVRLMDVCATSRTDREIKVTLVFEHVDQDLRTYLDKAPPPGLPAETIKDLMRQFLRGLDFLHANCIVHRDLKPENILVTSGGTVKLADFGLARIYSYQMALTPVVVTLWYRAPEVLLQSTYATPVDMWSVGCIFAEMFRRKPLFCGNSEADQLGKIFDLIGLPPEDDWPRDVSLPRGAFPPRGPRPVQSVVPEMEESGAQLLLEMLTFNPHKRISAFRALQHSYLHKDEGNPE
T1 sequence (P30281 1-264 partner limits assumed): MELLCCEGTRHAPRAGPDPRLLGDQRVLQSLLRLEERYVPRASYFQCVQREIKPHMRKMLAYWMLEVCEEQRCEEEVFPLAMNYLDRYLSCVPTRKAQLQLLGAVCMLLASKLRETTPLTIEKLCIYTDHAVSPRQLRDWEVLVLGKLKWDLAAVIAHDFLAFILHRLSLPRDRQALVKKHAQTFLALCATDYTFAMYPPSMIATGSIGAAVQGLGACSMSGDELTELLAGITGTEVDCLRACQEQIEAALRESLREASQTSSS

| inhibition at 0.1 µM | inhibition at 1 µM | inhibition at 0.03 µM | % Inhib CDK4/D @ 0.1 μM | % Inhib CDK4/D @ 0.03 | % Inhib CDK4/D @ 1 μM | SMILES |
| --- | --- | --- | --- | --- | --- | --- |
| 25% | 15.1% | 17% |  |  |  | CCC(CC)C[S+]([O-])c1cccc(Nc2nc(N)c(C(=O)c3c(Cl)cccc3Cl)s2)c1 (stereo not drawn) [DD(156)] |
| 42% | 59.7% | 21% |  |  |  | CC(=O)OCC[S+]([O-])c1cccc(Nc2nc(N)c(C(=O)c3c(Cl)cccc3Cl)s2)c1 (stereo not drawn) [DD(157)] |
| 27% | 35% | 22% |  |  |  | CC(C)OC(=O)CC[S+]([O-])c1cccc(Nc2nc(N)c(C(=O)c3c(Cl)cccc3Cl)s2)c1 (stereo not drawn) [DD(158)] |
| 25% | 44% | 36% |  |  |  | Nc1nc(Nc2cccc([S+]([O-])CCN3CCOCC3)c2)sc1C(=O)c1c(Cl)cccc1Cl (stereo not drawn) [DD(159)] |
| 19% | 49% | 8.1% |  |  |  | CC(C)(CO)C[S+]([O-])c1cccc(Nc2nc(N)c(C(=O)c3c(Cl)cccc3Cl)s2)c1 (stereo not drawn) [DD(160)] |
|  | 9.1% |  | −7% | −9.2% |  | CCN(CC)C(=O)CS(=O)(=O)c1ccc(Nc2nc(N)c(C(=O)c3c(Cl)cccc3Cl)s2)cc1 [DD(161)] |
|  |  |  | 13% | 5.8% | 14% | Cc1noc(C)c1CS(=O)(=O)c1ccc(Nc2nc(N)c(C(=O)c3c(Cl)cccc3Cl)s2)cc1 [DD(162)] |
| 27% | 52.8% | -5.8% |  |  |  | CC(CN(C)C)CS(=O)(=O)c1ccc(Nc2nc(N)c(C(=O)c3c(Cl)cccc3Cl)s2)cc1 (stereo not drawn) [DD(163)] |
|  |  |  | 8.6% | −7.4% | −6.9% | COC(=O)/C=C/CS(=O)(=O)c1ccc(Nc2nc(N)c(C(=O)c3c(Cl)cccc3Cl)s2)cc1 [DD(164)] |
|  |  |  | 10% | −1.8% | 34.3% | Nc1nc(Nc2ccc(S(=O)(=O)CCCO)cc2)sc1C(=O)c1c(Cl)cccc1Cl [DD(165)] |
| 14% |  |  |  | 3.5% | 14.5% | C=CCCS(=O)(=O)c1ccc(Nc2nc(N)c(C(=O)c3c(Cl)cccc3Cl)s2)cc1 [DD(166)] |
|  |  |  | 17% | −2.5% | 0.8% | Nc1nc(Nc2ccc(S(=O)(=O)CCN3CCCC3)cc2)sc1C(=O)c1c(Cl)cccc1Cl [DD(167)] |
|  | 30.7% |  | 7.8% | 8.3% |  | Nc1nc(Nc2ccc(S(=O)(=O)Cc3ncon3)cc2)sc1C(=O)c1c(Cl)cccc1Cl [DD(168)] |
|  |  |  | 33% | 44% | 36.4% | Nc1nc(Nc2ccc(S(=O)(=O)CC3CNC(=O)O3)cc2)sc1C(=O)c1c(Cl)cccc1Cl (stereo not drawn) [DD(169)] |
| 18% | 25.8% | 22% |  |  |  | CN(C)CCCS(=O)(=O)c1ccc(Nc2nc(N)c(C(=O)c3c(Cl)cccc3Cl)s2)cc1 [DD(170)] |
| 21% |  |  |  | −29% | 17.1% | Nc1nc(Nc2ccc(S(=O)(=O)CCN3CCCCC3)cc2)sc1C(=O)c1c(Cl)cccc1Cl [DD(171)] |
| 24% |  |  |  | −26% | 24.9% | Nc1nc(Nc2ccc(S(=O)(=O)CC3CO3)cc2)sc1C(=O)c1c(Cl)cccc1Cl (stereo not drawn) [DD(172)] |
| 17% |  |  |  | −11% | 14.5% | CC(C)CCS(=O)(=O)c1ccc(Nc2nc(N)c(C(=O)c3c(Cl)cccc3Cl)s2)cc1 [DD(173)] |
| 24% |  |  |  | −16% | 24.6% | COCCS(=O)(=O)c1ccc(Nc2nc(N)c(C(=O)c3c(Cl)cccc3Cl)s2)cc1 [DD(174)] |
| 23% |  |  |  | −14% | 12.4% | Nc1nc(Nc2ccc(S(=O)(=O)CC(=O)Nc3ccccc3)cc2)sc1C(=O)c1c(Cl)cccc1Cl [DD(175)] |
| 13% |  | 17% |  |  | 5.4% | Nc1nc(Nc2ccc(S(=O)(=O)CC3CC3)cc2)sc1C(=O)c1c(Cl)cccc1Cl [DD(176)] |
|  |  |  | 15% | −29% | 3.2% | COc1cccc(CS(=O)(=O)c2ccc(Nc3nc(N)c(C(=O)c4c(Cl)cccc4Cl)s3)cc2)c1 [DD(177)] |
|  | 16.6% |  | 16% | −27% |  | Nc1nc(Nc2ccc(S(=O)(=O)CC3CCCO3)cc2)sc1C(=O)c1c(Cl)cccc1Cl (stereo not drawn) [DD(178)] |

| inhibition at 0.1 µM | inhibition at 1 µM | inhibition at 0.03 µM | % Inhib CDK4/D @ 0.1 μM | % Inhib CDK4/D @ 0.03 | % Inhib CDK4/D @ 1 μM | SMILES |
| --- | --- | --- | --- | --- | --- | --- |
| 24% |  |  |  | −1.1% | 9.4% | CN1CCCC1CCS(=O)(=O)c1ccc(Nc2nc(N)c(C(=O)c3c(Cl)cccc3Cl)s2)cc1 (stereo not drawn) [DD(179)] |
|  |  |  | 13% | −14% | 4.2% | CC1(CS(=O)(=O)c2ccc(Nc3nc(N)c(C(=O)c4c(Cl)cccc4Cl)s3)cc2)CO1 (stereo not drawn) [DD(180)] |
| 28% | 27.5% |  |  | −10% |  | NC(=O)CS(=O)(=O)c1ccc(Nc2nc(N)c(C(=O)c3c(Cl)cccc3Cl)s2)cc1 [DD(181)] |
|  |  |  | 17% | −12% | 5.4% | CCOC(=O)CCS(=O)(=O)c1ccc(Nc2nc(N)c(C(=O)c3c(Cl)cccc3Cl)s2)cc1 [DD(182))] |
|  |  |  | 17% | 8.6% | 1.9% | CC(C)OC(=O)CS(=O)(=O)c1ccc(Nc2nc(N)c(C(=O)c3c(Cl)cccc3Cl)s2)cc1 [DD(183)] |
| 9% |  |  |  | 1.6% | −3.3% | CC(C)=CCS(=O)(=O)c1ccc(Nc2nc(N)c(C(=O)c3c(Cl)cccc3Cl)s2)cc1 [DD(184)] |
| 33% |  |  |  | 8.5% | 22.3% | CCCS(=O)(=O)c1ccc(Nc2nc(N)c(C(=O)c3c(Cl)cccc3Cl)s2)cc1 [DD(185)] |
| 26% |  |  |  | 7% | 38.9% | COC(=O)CS(=O)(=O)c1ccc(Nc2nc(N)c(C(=O)c3c(Cl)cccc3Cl)s2)cc1 [DD(186)] |
| 24% |  |  |  | 6% | −6.4% | CN1CCCC(CS(=O)(=O)c2ccc(Nc3nc(N)c(C(=O)c4c(Cl)cccc4Cl)s3)cc2)C1 (stereo not drawn) [DD(187)] |
| 35% | 25.9% |  |  | −11% |  | NC(=O)CCS(=O)(=O)c1ccc(Nc2nc(N)c(C(=O)c3c(Cl)cccc3Cl)s2)cc1 [DD(188)] |
| 31% |  |  |  | −19% | 32.2% | Nc1nc(Nc2ccc(S(=O)(=O)CCO)cc2)sc1C(=O)c1c(Cl)cccc1Cl [DD(189)] |
| 25% |  |  |  | −21% | 33.4% | CC(C)CCCS(=O)(=O)c1ccc(Nc2nc(N)c(C(=O)c3c(Cl)cccc3Cl)s2)cc1 [DD(190)] |
|  |  |  | 31% | −24% | 9.3% | CC(C)CCOC(=O)CS(=O)(=O)c1ccc(Nc2nc(N)c(C(=O)c3c(Cl)cccc3Cl)s2)cc1 [DD(191)] |
|  |  |  | 11% | 5.6% | −29% | CC(C)CCOC(=O)CS(=O)(=O)c1ccc(Nc2nc(N)c(C(=O)c3c(Cl)cccc3Cl)s2)cc1 [DD(192)] |
|  |  |  | 31% | −2.9% | 61.1% | CC(C)CCOC(=O)CS(=O)(=O)c1ccc(Nc2nc(N)c(C(=O)c3c(Cl)cccc3Cl)s2)cc1 [DD(193)] |
|  |  |  | 32% | −29% | 6.3% | CC(C)CCOC(=O)CS(=O)(=O)c1ccc(Nc2nc(N)c(C(=O)c3c(Cl)cccc3Cl)s2)cc1 [DD(194)] |
| 25% | 22.3% | 3.8% |  |  |  | Nc1nc(Nc2ccc(S(=O)(=O)Cc3ccccc3)cc2)sc1C(=O)c1c(Cl)cccc1Cl [DD(195)] |
| 15% | 14.4% | 1.3% |  |  |  | CCC(CC)S(=O)(=O)c1ccc(Nc2nc(N)c(C(=O)c3c(Cl)cccc3Cl)s2)cc1 [DD(196)] |
| 37% |  |  |  | 6.5% | 62.3% | CC(=O)OCCS(=O)(=O)c1ccc(Nc2nc(N)c(C(=O)c3c(Cl)cccc3Cl)s2)cc1 [DD(197)] |
| 9.2% | 5.1% | -24% |  |  |  | CC(C)OC(=O)CCS(=O)(=O)c1ccc(Nc2nc(N)c(C(=O)c3c(Cl)cccc3Cl)s2)cc1 [DD(198)] |
| 31% |  |  |  | −7.7% | 40.5% | Nc1nc(Nc2ccc(S(=O)(=O)CCN3CCOCC3)cc2)sc1C(=O)c1c(Cl)cccc1Cl [DD(199)] |
| 22% |  |  |  | −13% | 22.4% | CC(C)(CO)CS(=O)(=O)c1ccc(Nc2nc(N)c(C(=O)c3c(Cl)cccc3Cl)s2)cc1 [DD(200)] |
|  |  |  | 36% | 3.5% | 10.3% | CCN(CC)C(=O)CS(=O)(=O)c1ccc(Nc2nc(N)c(C(=O)c3c(Cl)cccc3Cl)s2)cc1 [DD(201)] |

From patent US20040176431A1, “Antiproliferative 2-(sulfo-phenyl)-aminothiazole derivatives and pharmaceutical compositions, and methods for their use” (Pfizer, Inc., priority 2003, published 2004)
